Source: ChEMBL document CHEMBL5154891, “Discovery of AZD4625, a Covalent Allosteric Inhibitor of the Mutant GTPase KRASG12C” (J Med Chem, 2022)
pIC50: −log10 of the molar value. Activity calls are given as the source filed them. The calls are words filed in the database; no cut-off is given here.

Legend:
GTPase KRas = GTPase KRas (Homo sapiens, UniProt P01116, G12C); assay: Inhibition of C-terminal Avi and 6His-tagged human KRAS 2B G12C mutant (1 to 166 residues) expressed in Escherichia coli BL21 (DE3) assessed as inhibition of SOS mediated nucleotide exchange preincubated for 4 hrs followed by SOS1 addition by HTRF assay
[1] = Bioavailability in Han Wistar rat at 2 micromol/kg, po and 1 umol/kg, iv; format: ADME, organism-based; details: in vivo; for bioavailability: Han Wistar, 2 µmol/kg
[2] = Metabolic stability in rat hepatocytes assessed as intrinsic clearance per 10^6 cells at 5 uM measured after 60 mins by UHPLC/UV/MS/MS; format: ADME, cell-based, Hepatocyte; details: for hepatocyte CLint at 5 µM: read-out: CLH
[3] = Inhibition of spheroid proliferation in human NCI-H358 cells harboring KRAS G12C mutant measured after 6 days by CellTiter-Glo assay; format: functional, cell-based; details: NCI-H358, 144 h
in vitro = details: human, liver microsomes, CLH
[4] = Lipophilicity, log D of the compound at pH 7.4; details: buffer, pH 7.4, logD
[5] = Toxicity in athymic nude-Foxn1nu mouse xenografted with human MIA PaCa-2 cells assessed as tolerability at 4 to 100 mg/kg, po administered for 21 days; format: organism-based; details: in vivo, 504 h, dose 4-100 mg/kg, time 21 day
[6] = biological target: T1, Ribosomal protein S6 kinase alpha-1 (Homo sapiens, UniProt Q15418); assay: Inhibition of p90RSK phosphorylation in human Calu-6 cells harboring KRAS Q61K measured for 2 hrs by immunofluorescence assay; format: cell-based
A549 = assay: Inhibition of spheroid proliferation in human A549 cells […] measured after 6 days by CellTiter-Glo assay; format: functional, cell-based; details: A549, 144 h
[7] = biological target: T1, Ribosomal protein S6 kinase alpha-1; assay: Inhibition of p90RSK phosphorylation in human PC-9 cells measured for 2 hrs by immunofluorescence assay; format: cell-based
[8] = biological target: Ribosomal protein S6 kinase alpha-1 (Homo sapiens, UniProt Q15418, G12C); assay: Inhibition of p90RSK phosphorylation in human NCI-H358 cells harboring KRAS G12C mutant measured for 2 hrs by immunofluorescence assay; format: cell-based
MIA PaCa-2 = assay: Antitumor activity against human MIA PaCa-2 cells harbouring KRAS G12C mutant xenografted in athymic nude Foxn1 nu mouse assessed as tumor regression at 100 mg/kg, po administered daily for 21 days and measured twice weekly by caliper analysis; format: functional, organism-based; details: time 21.0 day
[9] = biological target: Elongation factor 2 (Homo sapiens) (UniProt P13639); assay: Binding affinity to EEF2 in human […] cell lysate assessed as trypsin-mediated biotinylated cysteine residues digestion by measuring reduction in protein level at 4 uM pretreated for 2 hrs followed by labelled with iodoacetamide-desthiobiotin by MS analysis relative to control; format: subcellular; details: NCI-H358
Mus musculus = assay: In vivo inhibition of RAS/MAPK pathway in human MIA PaCa-2 cells harbouring KRAS G12C mutant xenografted in athymic nude Foxn1 nu mouse assessed as reduction in DUSP6 expression measured at 3 to 6 hrs post dose; format: functional; details: dose 4-100 mg/kg, time 3-6 hrs, DDE = dose-dependent effect
[10] = Hepatic blood flow in CD-1 mouse; format: ADME
[11] = Hepatic blood flow in Beagle dog; format: ADME, Canis lupus familiaris
[12] = biological target: T2, Oxidation resistance protein 1 (Homo sapiens) (UniProt Q8N573); assay: Binding affinity to OXR1 in human […] cell lysate assessed as trypsin-mediated biotinylated cysteine residues digestion by measuring reduction in protein level at 4 uM pretreated for 2 hrs followed by labelled with iodoacetamide-desthiobiotin by MS analysis relative to control; format: subcellular; details: NCI-H358
T2 sequence (whole entry): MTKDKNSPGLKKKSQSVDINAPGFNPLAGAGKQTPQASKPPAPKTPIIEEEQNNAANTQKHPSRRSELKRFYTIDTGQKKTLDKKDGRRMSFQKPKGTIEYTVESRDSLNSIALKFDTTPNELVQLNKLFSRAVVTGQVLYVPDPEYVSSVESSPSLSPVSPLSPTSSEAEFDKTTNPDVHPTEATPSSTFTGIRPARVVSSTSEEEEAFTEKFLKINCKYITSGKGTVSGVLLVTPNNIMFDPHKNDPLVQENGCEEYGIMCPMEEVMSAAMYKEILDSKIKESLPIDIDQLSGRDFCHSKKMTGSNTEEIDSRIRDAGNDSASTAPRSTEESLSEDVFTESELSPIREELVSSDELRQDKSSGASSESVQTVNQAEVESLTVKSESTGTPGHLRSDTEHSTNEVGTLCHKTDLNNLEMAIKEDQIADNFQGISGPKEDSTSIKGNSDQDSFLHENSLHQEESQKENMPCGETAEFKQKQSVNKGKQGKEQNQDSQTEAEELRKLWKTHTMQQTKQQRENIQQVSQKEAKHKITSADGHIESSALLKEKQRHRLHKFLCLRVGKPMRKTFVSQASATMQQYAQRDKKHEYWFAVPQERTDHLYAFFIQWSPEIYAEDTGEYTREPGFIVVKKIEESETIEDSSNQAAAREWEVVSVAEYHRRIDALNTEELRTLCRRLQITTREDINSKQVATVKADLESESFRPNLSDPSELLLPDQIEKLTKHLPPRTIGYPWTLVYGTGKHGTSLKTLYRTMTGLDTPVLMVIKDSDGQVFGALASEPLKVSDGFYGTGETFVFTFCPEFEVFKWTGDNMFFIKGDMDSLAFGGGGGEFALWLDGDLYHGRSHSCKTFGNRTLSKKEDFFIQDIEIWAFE

[13] = Hepatic blood flow in Wistar Han rat; format: ADME
[14] = Metabolic stability in human Hepatocyte assessed as intrinsic clearance measured per 10^6 cells; format: ADME, cell-based; details: hepatocytes, read-out: CLH
[15] = Stability in rat whole blood; format: ADME, tissue-based
[16] = Stability in monkey whole blood; format: ADME, tissue-based, Macaca mulatta; details: rhesus monkey
[17] = Stability in dog whole blood; format: ADME, tissue-based, Canis lupus familiaris
[18] = Stability in mouse whole blood; format: ADME, tissue-based
[19] = Drug metabolism in human hepatocyte assessed as oxidative metabolism; format: ADME, cell-based; details: hepatocytes, 1 h, time 60 min

SMILES	pIC50 (GTPase KRas)	bioavailability [1] [%]	hepatocyte CLint at 5 µM [2] [µL/min/1e6 cells]	microsomal CLint at 1 h, 5 µM (in vitro) [µL/min/mg]	logD [4]	further results
C=CC(=O)N1CCN2c3ncnc4cc(-c5c(C)ccc6[nH]ncc56)c(Cl)c(c34)OC[C@H]2C1 (atropisomer aR)	6.77					
C=CC(=O)N1CCN2c3ncnc4cc(-c5c(C)ccc6[nH]ncc56)c(Cl)c(c34)OC[C@@H]2C1 (atropisomer aS)			109	58		
C=CC(=O)N1CCN2c3ncnc4cc(-c5c(C)ccc6[nH]ncc56)c(Cl)c(c34)OC[C@H]2C1 (single isomer, unassigned; atropisomer 2)	4.75					
C=CC(=O)N1CCN(c2ncnc3cc(-c4c(C)ccc5[nH]ncc45)c(Cl)cc23)CC1			56	38	3.5	
C=CC(=O)N1CCN2c3ncnc4cc(-c5c(C)ccc6[nH]ncc56)c(Cl)c(c34)OCC[C@@H]2C1 (single isomer, unassigned; atropisomer 1)	4.81		50	192	3.4	
C=CC(=O)N1CCN2c3ncnc4cc(-c5c(C)ccc6[nH]ncc56)c(Cl)c(c34)OCC[C@H]2C1 (single isomer, unassigned; atropisomer 2)	8.05	16	46	189	3.4	Drug metabolism [19]: Metabolite_Detected; hepatocyte CLint [14]: 20 µL/min/1e6 cells
C=CC(=O)N1CCN2c3ncnc4cc(-c5c(C)ccc6[nH]ncc56)c(Cl)c(c34)OC[C@@H]2C1 (single isomer, unassigned; atropisomer 2)	4.57					

Now from value to compound, other results behind:

pIC50 (GTPase KRas)	bioavailability [1] [%]	hepatocyte CLint at 5 µM [2] [µL/min/1e6 cells]	microsomal CLint at 1 h, 5 µM (in vitro) [µL/min/mg]	logD [4]	SMILES	further results
7.19					C=CC(=O)N1C[C@H]2COc3c(Cl)c(-c4c(O)cccc4F)c(F)c4ncnc(c34)N2C[C@H]1C (stereo in doubt; 32)	F ([1]; po, at 2 µmol/kg): 31%; CLint_hep ([2]; 1 h, 5 µM): 43 uL/min/1e6 cells; GI50 ([3]; time 6 day): 284 nM
6.93	28	64	24	3.2	C=CC(=O)N1C[C@H]2COc3c(Cl)c(-c4c(O)cccc4F)c(F)c4ncnc(c34)N2C[C@H]1C (stereo in doubt; 30)	
8.52	75	40	28	3.2	C=CC(=O)N1C[C@@H]2CCOc3c(Cl)c(-c4c(O)cccc4F)c(F)c4ncnc(c34)N2C[C@H]1C	Activity [5]: Non-Toxic; pIC50 [6]: < 4.52; pIC50 (A549): 5.78; pIC50 [7]: 5.31; pIC50 [3]: 8.39; pIC50 [8]: 7.44; Activity (MIA PaCa-2): Active; Activity [9]: Active; Activity (Mus musculus): Dde; QH [10]: 152 mL/min/kg; QH [11]: 55 mL/min/kg; Activity [12]: Active; QH [13]: 72 mL/min/kg; hepatocyte CLint [14]: < 2 µL/min/1e6 cells
6.86	51	143	203	3.2	C=CC(=O)N1C[C@@H]2CCOc3c(Cl)c(-c4c(O)cccc4F)c(F)c4ncnc(c34)N2C[C@@H]1C	
> 8.30	36	99	66	2.7	C=CC(=O)N1CCN2c3ncnc4c(F)c(-c5c(O)cccc5F)c(Cl)c(c34)OCC[C@H]2C1	hepatocyte CLint [14]: 12 µL/min/1e6 cells
7.72	0	79	13	2.9	C=CC(=O)N1CCN2c3ncnc4c(F)c(-c5c(O)cccc5F)c(Cl)c(c34)OC[C@@H]2C1	Stability [15]: Unstable; Stability [16]: Unstable; Stability [17]: Unstable; Stability [18]: Unstable
6.87	31	238	110	3.4	C=CC(=O)N1C[C@H]2COc3c(Cl)c(-c4c(O)cccc4F)c(F)c4ncnc(c34)N2C[C@@H]1C	
